These results are taken from patent US11485728B2, “Small molecules for the treatment of autoimmune diseases and cancer” (Athos Therapeutics, Inc., priority 2020, dated 2022).

Molecules are shown by their SMILES. Read-outs that look alike come from different tables or passages of the source.

A short description of data set [1]: Formulation visual stability (DMA/PG/PEG 300/water). Type of data set: physicochemical. As to conditions: 25° C., 10-11 mg/mL in DMA/PG/PEG 300/Water. As for the experimental part: All formulations were conducted with FDA approved excipients and with high purity material such as USP grade quality. Formulation stability of test articles are performed using HPLC purity method described within analytical section. This formula may be used for oral administration of the compounds described herein; […]. Since these compounds have high solubility in lower pH as described in the solubility study section, the intervenous delivery is performed with 100% phosphate buffer solution of pH 6.5 allowing up to 7 mg/mL concentration. The formulated test articles can be store at 4° C. Prior to dosing, it should be warmed and vortexed for about 1 min to make a homogenous solution. If needed, filter through 0.2 μM syringe filter to maintain clean and sterile.

Data set [2] deals with C57BL/6 mice with DSS colitis. Kind of data set: DSS colitis in C57BL/6 mice. On clinical score: key: −: indicates no statistically significant effect in the variable measured when compared with the control group; +: indicates a statistically significant difference in the variable measured when compared with the control group; ++: indicates measurements that include multiple variables in the calculation of their differences when compared with the control group, and represents the presence of significant changes across all variable measurements. Type of data set: in vivo. As for the experimental part: Dextran sodium sulfate (DSS) was added to the water 24 hrs after compound administration and weight was measured daily.
C57BL/6 mice (20-22 grams) were fed ad lib and assigned to 4 different groups (n=8/group). […] A control group received vehicle alone. After 24 hrs, mice were weighed and DSS was added to their drinking water. Mice were then treated with the test compounds and weighed daily and the DSS water was replenished every 72 hrs for 5 days, at which point, it was replaced by regular drinking water. Mice were sacrificed on day twelve and clinical scored was assessed. Intestinal tissue for and blood were also collected. Tissues were either flash frozen and kept in −80° C. for RNA and protein isolation or placed in 10% formalin solution for future histological analysis. Blood was spun at 5K rpm for 5 min and serum was collected and kept at −20° C. for multiplex cytokine analysis.
DSS colitis mouse model: C57BL/6 mice (20-22 grains) are fed ad lib and assigned to different groups (n=8/group). […] A control group receives vehicle alone. After 24 h, mice are weighed and DSS is added to their drinking water. Mice are then treated with the test compounds and weighed daily and the DSS water is replenished every 72 liars for 5 days, at which point, it is replaced by regular drinking water. Mice are sacrificed on day twelve and clinical scored was assessed. Intestinal tissue for and blood are also collected. Tissues are either flash frozen and kept in −80° C. for RNA and protein isolation or placed in 10% formalin solution for future histological analysis.

The nature of the next data set: pH solubility. Type of data set: physicochemical. The settings on record: for solubility at 24 h: aqueous solution, thermodynamic from solid, read-out: Solubility Concentration. As for the experimental part: Saturated solutions of selected compounds were prepared at pH 1, 4, 6.5, and 7.4. The pH conditions selected are within the extremes of the normal physiological pH of the human gastrointestinal tract. Solubility testing of drug under different pH conditions was carried out by adding an excess amount of drug to each pH condition initiating with 1 mg/mL and then confirmed saturation by visual observation of undissolved material. The saturated solutions are continuously shaking at 6,000 rpm for 24 hours at room temperature. The saturated solutions were filtered through Millipore 0.22 um PVDF hydrophilic filters and subjected to HPLC to evaluate the solubility concentration of the test compound. Filtered saturated solutions were diluted with acetonitrile:water (50:50) within the calibration standard curve. A calibration curve of test compound contained […] standards at concentrations 0.25, 0.5, 1.0, 5.0, 10, 25, 50 and 100 μg/mL were prepared in acetonitrile:water (50:50).
Compounds were measured in filtered saturated solution using an Agilent 1260 Infinity II Lab LC Series HPLC (1260 quat pump, 1260 vial autosampler, ICC column oven, 1260 DAD WR detector). The chromatographic separation was achieved by Phenomenex Synergi Polar RP column (150×4.6 mm, 4 μm, 80 Å). The mobile phase was gradient (A: water with 0.1% trifluoroacetic acid, B: acetonitrile with 0.1% trifluoroacetic acid; A/B (99:1) from 0 minute; to A/B (1:99) from 0 to 10 minutes; A/B (1:99) from 10 to 12 minutes; to A/B (99:1) from 12 to 12.1 minutes; A/B (99:1) from 12.1 to 13 minutes) pumped at a flow rate of 1 mL/min. The detection of the eluent was monitored at 254 nm. The column oven was set at 35° C. Injection volume was 10 μL, unless otherwise specified. Data acquisition and peak integrations were obtained by OpenLAB CDS Version 2.4 (Agilent) operating with Windows (Microsoft).
Solubility is the ability of a drug to dissolve in an aqueous solution under different pH conditions. It is defined as the amount of substance that passes into solution to achieve a saturated solution at a constant temperature and pressure. The purpose of this study was to determine the solubility of selected compounds under different pH conditions and determine whether an oral solution is feasible or a suspension would be better to support the drug formulation process for pre-clinical studies. The pH conditions selected were within the extremes of the normal physiological pH of the human gastrointestinal tract, such as pH 1, pH 4, pH 6.5, and pH 7.4.

A further data set relates to Naïve human CD4 T cells. Briefly: Differentiation of naïve human CD4 T cells into FoxP3+ Tregs (flow cytometry). The class given is cell-based. The settings on record: 500 nM, 5 days. As for the experimental part:
Naïve human CD4 T cells were cultured in DMEM supplemented with 10% heat-inactivated FBS, 2 mM glutamine, 100 U/ml penicillin, 100 μg/ml streptomycin and 25 mM Hepes. Human CD4 T cells were treated with anti-CD3 and anti-CD28 (100 ng/ml) together with small molecule compounds (500 nM) for 5 days. FoxP3 and CD4 positive cells were stained and imaged in a BD LSRII flow cytometer. The gated area represents the percentage CD4^highFoxP3^high immune cell population. Furthermore, the same small molecule compounds were evaluated for their effects on IL17 protein levels in human CD4 T cells by using an ELISA assay (R&D systems, cat no. D1700).

For data set [3], the system named is CaCo-2 intestinal epithelial cells. Kind of data set: Transepithelial resistance (TEER) of CaCo-2 cells exposed to TNFα and IFNγ. The class given is cell-based. As for the experimental part: The intestinal epithelial barrier plays a central role in the pathophysiology of multiple chronic inflammatory and autoimmune diseases. Intestinal epithelial cells provide a physical barrier that interacts with immune cells and protects internal cavities from mucosal bacterial and antigen intrusion. Intestinal inflammation during IBD is associated with disruption of this barrier and cytokines like TNFα play important roles.
At confluence TEER is measured and TNFα along with compounds are added as described above. Compound-induced TEER is determined after correction with measurement prior to treatment.

The mark [4] stands for this setting: daily oral gavage, d12, vs vehicle.

For `COc1cc2c(NC3CCOCC3)nc(N3CCC(F)(F)CC3)nc2cc1OCCCN1CCCC1` [Compound 2, 2-(4,4-difluoropiperidin-1-yl)-6-methoxy-7-(3-(pyrrolidin-1-yl)propoxy)-N-(tetrahydro-2H-pyran-4-yl)quinazolin-4-amine], the Appearance result in data set [1] (30 min), in data set [1] (1 h), in data set [1] (5 h), in data set [1] (24 h) and in data set [1] (7 d) was “clear” throughout. The “effect on overall efficacy, clinical score and colon length (in words)” value in data set [2] (25 mg/kg PO daily) was “very strong effect”. Besides, the “effect on the effects of DSS colitis (in words)” value in data set [2] (25 mg/kg PO daily) is given as “alleviation of the effects of DSS colitis”. In data set [2] (25 mg/kg PO daily, day twelve), the “Colon Length” value is reported as “++”. Moreover, the “Clinical Score” value in data set [2] (25 mg/kg PO daily, day twelve, includes weight, bleeding, diarrhea, rectal prolapse) is listed as “++”. The “DSS Efficacy” value in data set [2] (25 mg/kg PO daily, sacrificed day twelve) is reported as “++”. Also, in data set [2] (daily oral gavage, after d11), the “protection against colitis induced weight loss” value is listed as “significant protection against colitis induced weight loss”. The colitis-induced weight loss entry in data set [2] (setting [4]) is listed as “significantly prevented”. Besides, in data set [2] (setting [4]), the colon length shortening entry is “significantly prevented”. Also, the solubility at 24 h worked out at 27.5 mg/mL in “pH solubility” (pH 6.5, aqueous buffer) and 0.449 mg/mL in “pH solubility” (pH 7.4, aqueous buffer). Besides, the “solubility higher than the solubility of compound 201” value in the data set “pH solubility” (pH 7.4) stood at 40 fold. Also, in the data set on Naïve human CD4 T cells (anti-CD3 and anti-CD28 100 ng/ml, CD4highFoxP3high population), the “Tregs (%)” value stood at 20.1%. In the data set with Naïve human CD4 T cells (baseline 3.2%), the “increase of the number of Tregs over untreated” value is on record as 6.28 fold. In data set [3] (TNFα 10 ng/ml, IFNγ 100 ng/ml, compounds 1 μM, 48 hrs of treatment), the epithelial barrier resistance entry was “recovered epithelial barrier resistance levels back to those of untreated cells”. For the same molecule, in data set [3] (TNFα 20 ng/ml, IFNγ 200 ng/ml, 24 hrs of treatment), the “transepithelial resistance after combined TNFα and IFNγ exposure” value was “ameliorated the disruptive effects”. In addition, the TEER entry in data set [3] (vs control group) is listed as “+”.
